Test results published in ChEMBL document CHEMBL1268940, “Synthesis and anticancer evaluation of thiazolyl-chalcones” (Bioorg Med Chem Lett, 2010).
pIC50: −log10 of the molar value.

Each compound was assayed on Bel-7402 (assay: Cytotoxicity against human Bel7402 cells by MTT assay).
Assay type: functional, cell-based

`COc1cccc(/C=C/C(=O)c2sc(Nc3ccccc3)nc2C)c1` and `COc1cccc(/C=C/C(=O)c2sc(Nc3cccc(C)c3)nc2C)c1` cannot be ordered by pIC50: < 4.60 for the first, < 4.60 for the second.

Going from `COc1cc(/C=C/C(=O)c2sc(Nc3ccc(C)cc3)nc2C)cc(OC)c1OC` to `COc1cc(/C=C/C(=O)c2sc(Nc3cccc(Cl)c3)nc2C)cc(OC)c1OC`, the pIC50 rises from < 4.60 to 4.85.

`Cc1ccccc1Nc1nc(C)c(C(=O)/C=C/c2ccc(Cl)cc2)s1` and `Cc1nc(Nc2ccccc2)sc1C(=O)/C=C/c1ccc(Cl)cc1` cannot be ordered by pIC50: < 4.60 for the first, < 4.60 for the second.

`Cc1nc(Nc2cccc(Cl)c2)sc1C(=O)/C=C/c1ccc(Cl)cc1` and `Cc1cccc(Nc2nc(C)c(C(=O)/C=C/c3ccc(Cl)cc3)s2)c1` cannot be ordered by pIC50: < 4.60 for the first, < 4.60 for the second.

`Cc1nc(Nc2ccc(Cl)cc2)sc1C(=O)/C=C/c1ccc(Cl)cc1` and `Cc1ccc(Nc2nc(C)c(C(=O)/C=C/c3ccc(Cl)cc3)s2)cc1` cannot be ordered by pIC50: < 4.60 for the first, < 4.60 for the second.

First: Cc1nc(Nc2ccc(Cl)c(Cl)c2)sc1C(=O)/C=C/c1ccccc1
Second: Cc1nc(Nc2ccc(Cl)c(Cl)c2)sc1C(=O)/C=C/c1ccc(Cl)cc1
The pIC50 of the first is higher: 4.67 for the first, < 4.60 for the second. The first is the more potent here.

`COc1cccc(/C=C/C(=O)c2sc(Nc3ccc(Cl)cc3)nc2C)c1` and `COc1cccc(/C=C/C(=O)c2sc(Nc3cccc(Cl)c3)nc2C)c1` cannot be ordered by pIC50: < 4.60 for the first, < 4.60 for the second.

`Cc1ccccc1Nc1nc(C)c(C(=O)/C=C/c2ccccc2)s1` and `Cc1ccc(Nc2nc(C)c(C(=O)/C=C/c3ccccc3)s2)cc1` cannot be ordered by pIC50: < 4.60 for the first, < 4.60 for the second.

`Cc1ccc(Nc2nc(C)c(C(=O)/C=C/c3ccc4c(c3)OCO4)s2)cc1` and `Cc1nc(Nc2ccc(Cl)c(Cl)c2)sc1C(=O)/C=C/c1ccc2c(c1)OCO2` cannot be ordered by pIC50: < 4.60 for the first, < 4.60 for the second.

In the case of `Cc1nc(Nc2ccccc2)sc1C(=O)/C=C/c1ccccc1Cl`, the pIC50 was < 4.60.

Each compound was assayed on PC-3 (assay: Cytotoxicity against human PC3 cells by MTT assay).
Assay type: functional, cell-based

`COc1cccc(/C=C/C(=O)c2sc(Nc3ccccc3)nc2C)c1` and `COc1cccc(/C=C/C(=O)c2sc(Nc3cccc(C)c3)nc2C)c1` cannot be ordered by pIC50: < 4.60 for the first, < 4.60 for the second.

`COc1cc(/C=C/C(=O)c2sc(Nc3ccc(C)cc3)nc2C)cc(OC)c1OC` and `COc1cc(/C=C/C(=O)c2sc(Nc3cccc(Cl)c3)nc2C)cc(OC)c1OC` cannot be ordered by pIC50: < 4.60 for the first, < 4.60 for the second.

`Cc1ccccc1Nc1nc(C)c(C(=O)/C=C/c2ccc(Cl)cc2)s1` and `Cc1nc(Nc2ccccc2)sc1C(=O)/C=C/c1ccc(Cl)cc1` cannot be ordered by pIC50: < 4.60 for the first, < 4.60 for the second.

`Cc1nc(Nc2cccc(Cl)c2)sc1C(=O)/C=C/c1ccc(Cl)cc1` and `Cc1cccc(Nc2nc(C)c(C(=O)/C=C/c3ccc(Cl)cc3)s2)c1` cannot be ordered by pIC50: < 4.60 for the first, < 4.60 for the second.

`Cc1nc(Nc2ccc(Cl)cc2)sc1C(=O)/C=C/c1ccc(Cl)cc1` and `Cc1ccc(Nc2nc(C)c(C(=O)/C=C/c3ccc(Cl)cc3)s2)cc1` cannot be ordered by pIC50: < 4.60 for the first, < 4.60 for the second.

First: Cc1nc(Nc2ccc(Cl)c(Cl)c2)sc1C(=O)/C=C/c1ccccc1
Second: Cc1nc(Nc2ccc(Cl)c(Cl)c2)sc1C(=O)/C=C/c1ccc(Cl)cc1
The pIC50 of the first is higher: 5.10 for the first, < 4.60 for the second.

`COc1cccc(/C=C/C(=O)c2sc(Nc3ccc(Cl)cc3)nc2C)c1` and `COc1cccc(/C=C/C(=O)c2sc(Nc3cccc(Cl)c3)nc2C)c1` cannot be ordered by pIC50: < 4.60 for the first, < 4.60 for the second.

`Cc1ccccc1Nc1nc(C)c(C(=O)/C=C/c2ccccc2)s1` and `Cc1ccc(Nc2nc(C)c(C(=O)/C=C/c3ccccc3)s2)cc1` cannot be ordered by pIC50: < 4.60 for the first, < 4.60 for the second.

`Cc1ccc(Nc2nc(C)c(C(=O)/C=C/c3ccc4c(c3)OCO4)s2)cc1` and `Cc1nc(Nc2ccc(Cl)c(Cl)c2)sc1C(=O)/C=C/c1ccc2c(c1)OCO2` cannot be ordered by pIC50: < 4.60 for the first, < 4.60 for the second.

With `Cc1nc(Nc2ccccc2)sc1C(=O)/C=C/c1ccccc1Cl` the pIC50 was < 4.60.

The compounds below were run on BGC-823 (assay: Cytotoxicity against human BGC823 cells by MTT assay).
Assay type: functional, cell-based

Going from `COc1cccc(/C=C/C(=O)c2sc(Nc3ccccc3)nc2C)c1` to `COc1cccc(/C=C/C(=O)c2sc(Nc3cccc(C)c3)nc2C)c1`, the pIC50 falls from 4.84 to < 4.60.

Compared with `COc1cc(/C=C/C(=O)c2sc(Nc3ccc(C)cc3)nc2C)cc(OC)c1OC`, `COc1cc(/C=C/C(=O)c2sc(Nc3cccc(Cl)c3)nc2C)cc(OC)c1OC` is higher in pIC50: < 4.60 for the first, 4.94 for the second.

`Cc1ccccc1Nc1nc(C)c(C(=O)/C=C/c2ccc(Cl)cc2)s1` and `Cc1nc(Nc2ccccc2)sc1C(=O)/C=C/c1ccc(Cl)cc1` cannot be ordered by pIC50: < 4.60 for the first, < 4.60 for the second.

`Cc1nc(Nc2cccc(Cl)c2)sc1C(=O)/C=C/c1ccc(Cl)cc1` and `Cc1cccc(Nc2nc(C)c(C(=O)/C=C/c3ccc(Cl)cc3)s2)c1` cannot be ordered by pIC50: < 4.60 for the first, < 4.60 for the second.

`Cc1nc(Nc2ccc(Cl)cc2)sc1C(=O)/C=C/c1ccc(Cl)cc1` and `Cc1ccc(Nc2nc(C)c(C(=O)/C=C/c3ccc(Cl)cc3)s2)cc1` cannot be ordered by pIC50: < 4.60 for the first, < 4.60 for the second.

Going from `Cc1nc(Nc2ccc(Cl)c(Cl)c2)sc1C(=O)/C=C/c1ccccc1` to `Cc1nc(Nc2ccc(Cl)c(Cl)c2)sc1C(=O)/C=C/c1ccc(Cl)cc1`, the pIC50 falls from 4.97 to 4.64 (0.33 log units).

`COc1cccc(/C=C/C(=O)c2sc(Nc3ccc(Cl)cc3)nc2C)c1` and `Cc1ccc(Nc2nc(C)c(C(=O)/C=C/c3ccccc3)s2)cc1` cannot be ordered by pIC50: < 4.60 for the first, < 4.60 for the second.

Compared with `Cc1ccccc1Nc1nc(C)c(C(=O)/C=C/c2ccccc2)s1`, `Cc1nc(Nc2ccccc2)sc1C(=O)/C=C/c1ccccc1Cl` is higher in pIC50: < 4.60 for the first, 4.64 for the second. The second is the more potent here.

`Cc1ccc(Nc2nc(C)c(C(=O)/C=C/c3ccc4c(c3)OCO4)s2)cc1` and `Cc1nc(Nc2ccc(Cl)c(Cl)c2)sc1C(=O)/C=C/c1ccc2c(c1)OCO2` cannot be ordered by pIC50: < 4.60 for the first, < 4.60 for the second.

What follows are compounds tested on NCI-H460 (assay: Cytotoxicity against human NCI-H460 cells by MTT assay).
Assay type: functional, cell-based

`COc1cccc(/C=C/C(=O)c2sc(Nc3ccccc3)nc2C)c1` and `COc1cccc(/C=C/C(=O)c2sc(Nc3cccc(C)c3)nc2C)c1` cannot be ordered by pIC50: < 4.60 for the first, < 4.60 for the second.

`COc1cc(/C=C/C(=O)c2sc(Nc3ccc(C)cc3)nc2C)cc(OC)c1OC` and `COc1cc(/C=C/C(=O)c2sc(Nc3cccc(Cl)c3)nc2C)cc(OC)c1OC` cannot be ordered by pIC50: < 4.60 for the first, < 4.60 for the second.

`Cc1ccccc1Nc1nc(C)c(C(=O)/C=C/c2ccc(Cl)cc2)s1` and `Cc1nc(Nc2ccccc2)sc1C(=O)/C=C/c1ccc(Cl)cc1` cannot be ordered by pIC50: < 4.60 for the first, < 4.60 for the second.

`Cc1nc(Nc2cccc(Cl)c2)sc1C(=O)/C=C/c1ccc(Cl)cc1` and `Cc1cccc(Nc2nc(C)c(C(=O)/C=C/c3ccc(Cl)cc3)s2)c1` cannot be ordered by pIC50: < 4.60 for the first, < 4.60 for the second.

`Cc1nc(Nc2ccc(Cl)cc2)sc1C(=O)/C=C/c1ccc(Cl)cc1` and `Cc1ccc(Nc2nc(C)c(C(=O)/C=C/c3ccc(Cl)cc3)s2)cc1` cannot be ordered by pIC50: < 4.60 for the first, < 4.60 for the second.

First: Cc1nc(Nc2ccc(Cl)c(Cl)c2)sc1C(=O)/C=C/c1ccccc1
Second: Cc1nc(Nc2ccc(Cl)c(Cl)c2)sc1C(=O)/C=C/c1ccc(Cl)cc1
The pIC50 of the first is higher: 4.64 for the first, < 4.60 for the second.

`COc1cccc(/C=C/C(=O)c2sc(Nc3ccc(Cl)cc3)nc2C)c1` and `COc1cccc(/C=C/C(=O)c2sc(Nc3cccc(Cl)c3)nc2C)c1` cannot be ordered by pIC50: < 4.60 for the first, < 4.60 for the second.

`Cc1ccccc1Nc1nc(C)c(C(=O)/C=C/c2ccccc2)s1` and `Cc1ccc(Nc2nc(C)c(C(=O)/C=C/c3ccccc3)s2)cc1` cannot be ordered by pIC50: < 4.60 for the first, < 4.60 for the second.

`Cc1ccc(Nc2nc(C)c(C(=O)/C=C/c3ccc4c(c3)OCO4)s2)cc1` and `Cc1nc(Nc2ccc(Cl)c(Cl)c2)sc1C(=O)/C=C/c1ccc2c(c1)OCO2` cannot be ordered by pIC50: < 4.60 for the first, < 4.60 for the second.

For `Cc1nc(Nc2ccccc2)sc1C(=O)/C=C/c1ccccc1Cl`, the pIC50 was < 4.60.
